Measured values as given in US20040115739A1, “Method for identifying maxi-k channel blockers for use in lowering elevated intraocular pressure using hek-293 cells” (priority 2003, published 2004).

Key:
Format in all cases: cell-based
[1] = biological target: T1, maxi-K channel (alpha and beta 1 subunits) in stably transfected HEK-293 cells (Homo sapiens, UniProt Q12791); test: VIPR/FRET membrane potential assay, HEK-293 cells stably transfected with alpha and beta 1 subunits of the maxi-K channel
T1 construct: expressed in transfected cells
T1 sequence (Q12791 whole entry): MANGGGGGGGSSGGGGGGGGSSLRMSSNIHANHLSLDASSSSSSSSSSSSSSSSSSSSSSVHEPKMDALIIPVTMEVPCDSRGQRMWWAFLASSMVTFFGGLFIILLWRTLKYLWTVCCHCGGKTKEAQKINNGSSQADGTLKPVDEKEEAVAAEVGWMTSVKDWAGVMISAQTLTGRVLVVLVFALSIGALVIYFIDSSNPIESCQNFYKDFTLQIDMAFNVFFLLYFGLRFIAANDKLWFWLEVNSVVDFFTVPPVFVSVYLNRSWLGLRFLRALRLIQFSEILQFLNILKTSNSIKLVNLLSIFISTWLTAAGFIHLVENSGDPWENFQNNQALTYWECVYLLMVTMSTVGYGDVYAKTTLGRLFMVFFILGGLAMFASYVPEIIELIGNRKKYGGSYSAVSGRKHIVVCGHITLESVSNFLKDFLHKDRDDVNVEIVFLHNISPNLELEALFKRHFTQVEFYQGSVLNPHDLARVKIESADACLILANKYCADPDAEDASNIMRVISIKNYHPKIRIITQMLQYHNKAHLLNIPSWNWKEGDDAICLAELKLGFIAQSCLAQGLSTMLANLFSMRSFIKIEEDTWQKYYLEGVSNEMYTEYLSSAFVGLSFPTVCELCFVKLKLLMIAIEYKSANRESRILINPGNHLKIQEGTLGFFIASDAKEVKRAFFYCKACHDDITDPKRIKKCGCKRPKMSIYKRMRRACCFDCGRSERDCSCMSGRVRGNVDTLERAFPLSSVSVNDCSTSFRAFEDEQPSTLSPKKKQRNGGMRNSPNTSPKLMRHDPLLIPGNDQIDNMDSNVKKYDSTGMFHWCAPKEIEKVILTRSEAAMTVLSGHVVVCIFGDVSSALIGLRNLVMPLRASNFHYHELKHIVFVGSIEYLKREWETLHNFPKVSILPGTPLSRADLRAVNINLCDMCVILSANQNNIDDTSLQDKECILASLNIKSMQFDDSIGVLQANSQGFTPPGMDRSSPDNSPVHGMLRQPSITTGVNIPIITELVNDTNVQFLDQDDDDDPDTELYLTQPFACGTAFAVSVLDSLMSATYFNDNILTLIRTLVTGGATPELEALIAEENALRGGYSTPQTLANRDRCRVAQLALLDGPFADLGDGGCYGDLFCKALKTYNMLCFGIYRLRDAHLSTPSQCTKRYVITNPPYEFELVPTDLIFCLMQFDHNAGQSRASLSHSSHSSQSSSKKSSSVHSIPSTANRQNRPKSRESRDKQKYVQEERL
T1 sequence (Q16558 whole entry partner): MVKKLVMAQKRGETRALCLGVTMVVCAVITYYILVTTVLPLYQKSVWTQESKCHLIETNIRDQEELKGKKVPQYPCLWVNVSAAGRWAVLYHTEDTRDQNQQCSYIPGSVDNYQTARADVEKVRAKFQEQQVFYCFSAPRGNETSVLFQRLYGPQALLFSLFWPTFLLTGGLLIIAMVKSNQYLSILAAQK
Protocol: Transfection of the alpha and betal subunits of the maxi-K channel in HEK-293 cells was carried out as follows: HEK-293 cells were plated in 100 mm tissue culture treated dishes at a density of 3×10^6 cells per dish, and a total of five dishes were prepared. Cells were grown in a medium consisting of Dulbecco's Modified Eagle Medium (DMEM) supplemented with 10% Fetal Bovine serum, 1× L-Glutamine, and 1× Penicillin/Streptomycin, at 37° C., 10% CO2. For transfection with Maxi-K hα (pCIneo) and Maxi-K hβ1 (pIRESpuro) DNAs, 150 μl FuGENE6™ was added dropwise into 10 ml of serum free/phenol-red free DMEM and allowed to incubate at room temperature for 5 minutes. Then, the FuGENE6™ solution was added dropwise to a DNA solution containing 25 μg of each plasmid DNA, and incubated at room temperature for 30 minutes. After the incubation period, 2 ml of the FuGENE6™/DNA solution was added dropwise to each plate of cells and the cells were allowed to grow two days under the same conditions as described above. At the end of the second day, cells were put under selection media which consisted of DMEM supplemented with both 600 μg/ml G418 and 0.75 μg/ml puromycin. Cells were grown until separate colonies were formed. Five colonies were collected and transferred to a 6 well tissue culture treated dish. A total of 75 colonies were collected. Cells were allowed to grow until a confluent monolayer was obtained. Cells were then tested for the presence of maxi-K channel alpha and beta1 subunits using an assay that monitors binding of ^125I-iberiotoxin-D19Y/Y36F to the channel. Cells expressing ^125I-iberiotoxin-D19Y/Y36F binding activity were then evaluated in a functional assay that monitors the capability of maxi-K channels to control the membrane potential of transfected HEK-293 cells using fluorescence resonance energy transfer (FRET) ABS technology with a VIPR instrument. The colony giving the largest signal to noise ratio was subjected to limiting dilution. For this, cells were resuspended at approximately 5 cells/ml, and 200 μl were plated in individual wells in a 96 well tissue culture treated plate, to add ca. one cell per well. A total of two 96 well plates were made. When a confluent monolayer was formed, the cells were transferred to 6 well tissue culture treated plates. A total of 62 wells were transferred. When a confluent monolayer was obtained, cells were tested using the FRET-functional assay. […]
The plates are loaded into a voltage/ion probe reader (VIPR) instrument, and the fluorescence emission of both CC2DMPE and DiSBAC2(3) are recorded for 10 sec. At this point, 100 μl of high-potassium solution (mM): 140 KCl, 2 CaCl2, 1 MgCl2, 20 Hepes-KOH, pH 7.4, 10 glucose are added and the fluorescence emission of both dyes recorded for an additional 10 sec. […]

[2] = biological target: T2, maxi-K channels transiently expressed in TsA-201 cells (Homo sapiens, UniProt Q12791); test: VIPR/FRET membrane potential assay, maxi-K channels transiently expressed in TsA-201 cells; conditions: FIG. 2
T2 construct: expressed in transfected cells; host or cells: TsA-201 cells, transient transfection
T2 sequence (Q12791 whole entry): as the sequence (Q12791 whole entry) above
T2 sequence (Q16558 whole entry partner): as the sequence (Q16558 whole entry partner) above
Text: In order to discover novel maxi-K channel blockers, a robust and reliable functional assay is required. High throughput screening assays with ion channels have been developed (see Aurora Biosciences J. E. Gonzalez et al., DDT, 4, 431-439, 1999). For example, transient transfection of maxi-K channel alpha and beta1 subunits into TsA-201 cells leads to the maxi-K channel controlling the membrane potential of those cells, under appropriate experimental conditions. However, transient transfection experiments are limited because, typically, the transfection has to occur for every experiment, the cells are only available for assay twice a week and results can be variable depending on the transfection efficiency. This invention relates to a new functional assay, which utilizes HEK-293 cells, which once transfected remains as such, thereby eliminating the need for further transfection. The claimed method also provides more reliable reading of the maxi-K channel activity.

[3] = test system: endogenous potassium conductances of HEK-293 cells; test: VIPR/FRET membrane potential assay, high-potassium addition to HEK-293 cells; conditions: FIG. 1; for effect on fluorescence signal caused by high-potassium addition: untransfected HEK-293 cells, different/increasing concentrations of compound; for efficacy (inhibition of fluorescence signal) in the presence of Compound 1: HEK-293 cells, selective maxi-K channel blocker Compound 1 present
Protocol: HEK-293 cells were plated on 96-well poly-D-lysine plates and incubated for about 16 to 24 hours at 37° C. The media was aspirated and the cells were washed once with D-PBS. Cells were incubated with 9 μM coumarin (CC2DMPE)-0.02% pluronic-127 in D-PBS for 30 minutes in the dark. Cells were washed twice with D-PBS, and incubated with 4.5 μM oxanol (DiSBAC2(3)) in the absence (Control) or presence of increasing concentrations of test compound, in the dark for 30 minutes. Plates were loaded onto a VIPR instrument and the fluorescence emission of both dyes was recorded for 10 seconds. A solution containing high-potassium was then added and the fluorescence emission of the dyes was recorded for another 10 seconds. The coumarin/oxanol ratio was calculated under both conditions. Before addition of high-potassium, this ratio was always normalized to 1.
The signal is not affected by the presence of different concentrations of the selective maxi-K channel blocker, Compound 1. […] A useful concentration range for these agents is 3-10 μM. Importantly, in the presence of the selective maxi-K channel blocker Compound 1, the efficacy of either Compound A or Compound B is unaffected.

effect on the magnitude of the signal caused by addition of high-potassium solution ([1]; stably transfected HEK-293 cells, FIG. 3) | SMILES | inhibition of control signal with increasing concentrations ([1]; 3 μM Compound A present in all wells, FIG. 4) | block of signal generated by addition of high-potassium solution ([1]; compound alone, no blocker of endogenous conductances, FIG. 3) | inhibition of signal generated by addition of high-potassium solution ([1]; in the presence of potassium channel blocker Compound A, FIG. 3) | inhibition of control signal ([2]; 3 μM compound) | effect on fluorescence signal caused by high-potassium addition [3] | effect on maxi-K channel activity [2] | efficacy (inhibition of fluorescence signal) in the presence of Compound 1 [3]
– | CC(=O)SCC(Cc1ccccc1)C(=O)NC(Cc1ccccc1)C(=O)NCCc1ccccc1 (stereo not drawn) [Compound 1] | concentration-dependent inhibition of the control signal | only partially blocks the signal | complete inhibition of the signal | completely inhibits the control signal | not affected | – | –
no significant effect | CCCNC(=O)OC1CCC(CNC(=O)c2ccccc2OC)(c2ccccc2)CC1 (stereo not drawn) [Compound A] | – | – | – | – | concentration-dependent inhibition of the fluorescence signal | neither Compound A, nor Compound B have any effect on maxi-K channel activity | unaffected
– | COc1ccccc1C(=O)NCC1(c2ccccc2)CCC(=O)CC1 [Compound B] | – | – | – | – | concentration-dependent inhibition of the fluorescence signal | neither Compound A, nor Compound B have any effect on maxi-K channel activity | unaffected
